Legend:
[1] = test system: acpP mRNA; experiment: RNA-seq of KFF-ASO-treated Salmonella (acpP mRNA depletion); type: cell-based, Salmonella enterica serovar Typhimurium strain SL1344; design: key to acpP depletion (RNA-seq): +++: Effect strength is represented by additional (+) signs.; ++: Effect strength is represented by additional (+) signs.; Effect strength is represented by additional (+) signs; details: 15 min; for acpP depletion (RNA-seq): ASO conjugated to the carrier peptide, 5 µM, summary grade
Experimental: To assay bacterial responses to the different ASO modalities and to determine target mRNA depletion in cellulo, we performed RNA-seq analysis of Salmonella challenged with 5 µM KFF-ASO conjugates for 15 min. We first evaluated two individual RNA-seq experiments by principal component analysis (PCA) and observed three distinct clusters (Fig. 5). The PCA cluster 1 grouped the water control, RNA-MOE, RNA-OMe, and the PNA-treated conditions. […] Cluster 2 grouped the other negASOs. As we have previously observed for KFF peptide exposure ([Popella et al. 2021], [2022]), these treatments led to the activation of a cationic antimicrobial peptide (CAMP) response, including induction of the PhoP/Q and PmrA/B regulons involved in remodeling LPS, and the CpxR regulon that responds to envelope stress (Fig. 7). […] These treatments also led to the down-regulation of genes responsible for the destruction of superoxide anion radicals (sodB) and those involved in manganese efflux (yebN) (Figs. 6 and 7). Finally, cluster 3 grouped samples of the unconjugated peptides and the PMO treatment. Similarly to cluster 2, these activated a strong CAMP response (Fig. 7).
RNA isolation was performed using previously published protocols ([Popella et al. 2021], [2022]). Bacterial overnight cultures were diluted 1:100 in fresh MHB and grown to OD600 0.5. The cultures were diluted to ∼10^6 cfu/mL in noncation-adjusted MHB. […]
Total RNA was purified from bacterial pellets using the miRNeasy Mini kit (Qiagen) according to protocol #3 described in [Popella et al. (2021]). […] RNA concentration was measured with a NanoDrop spectrophotometer.
For transcriptomic analyses, RNA samples were processed and subjected to RNA-seq at the Core Unit SysMed (University of Würzburg). […] Sequencing of pooled libraries, spiked with 5% PhiX control library, was performed at 10 million reads/sample in single-end mode with 75 nt read length on the NextSeq 500 platform (Illumina) using High output sequencing kits. […]

[2] = test system: Salmonella outer membrane; experiment: Outer membrane permeabilization (NPN fluorescence); type: cell-based, Salmonella enterica serovar Typhimurium strain SL1344; design: key to Outer membrane permeation: +++: Effect strength is represented by additional (+) signs.; ++: Effect strength is represented by additional (+) signs.; Effect strength is represented by additional (+) signs; details: for Outer membrane permeation: ASO conjugated to the carrier peptide, 10 µM, NPN fluorescence, summary grade; for Outer membrane permeabilization, NPN fluorescence (in words): KFF-ASOs 10 µM, CTAB 10 µM, PMXB 0.4 µM, added after 14 min
From the text: Because the negASOs are ineffective in bacterial cells despite their activity in cell-free systems, we investigated if these ASOs affected the ability of the KFF carrier peptide to induce OM permeabilization. Therefore, we used the hydrophobic fluorophore N-phenylnaphthylamine (NPN), a dye that turns fluorescent after binding to hydrophobic regions within cell membranes. This only occurs in cells with a compromised OM ([Ghosh et al. 2016]; [Ellis et al. 2019]). […] However, when conjugated to negASOs, the KFF carrier is unable to permeabilize the OM (Fig. 10). This could potentially be due to electrostatic interactions between the negASOs and the positively charged KFF.
The experiments were performed by modifying previously published protocols ([Ghosh et al. 2016]; [Ellis et al. 2019]; [Zheng et al. 2021]). Salmonella (WT SL1344, JVS-1574) were grown overnight in 4 mL MHB medium at 37°C (with shaking at 220 rpm). Then the culture was diluted 1:100 and grown until OD600 0.5 (∼2 × 10^8 cfu/mL). This culture was harvested and washed two times with 5 mM HEPES and further diluted to OD600 0.2 in 5 mM HEPES supplemented with 5 mM Glucose (pH 7.2). These cells were then incubated with NPN (Sigma) at a final concentration of 10 µM. One hundred and ninety microliters of NPN-treated cells were transferred into 96-well back plates with transparent bottoms and fluorescence (excitation = 350 nm, emission = 420 nm) was recorded for 60 min (reading was performed every minute) using a Synergy H1 plate reader (Biotek). On the 14th minute, 10 µL of the test compounds (10 µM final concentration) was added into the wells. CTAB (Sigma) 10 µM (final concentration) or PMXB (Sigma) (final concentration of 0.4 µM) were used as positive controls, while water was used as negative control. The fluorescence of the wells was monitored using the same settings as above. The plots were created using OrginPro 2023. The experiment was performed twice and Figure 10 is a representative example of two independent experiments.

| Substance | acpP depletion (RNA-seq) [1] | Outer membrane permeation [2] | Outer membrane permeabilization, NPN fluorescence (in words) [2] | acpP mRNA levels after treatment (in words) ([1]; 5 µM KFF-ASO conjugates, RNA-seq) |
| --- | --- | --- | --- | --- |
| PMO: phosphorodiamidate morpholino 10mer ASO, sequence CTCATACTCT, targeting acpP −5 to +5 (all phosphorodiamidate morpholino (PMO)) | + | ++ | this ability is retained upon conjugation |  |
| PNA: peptide nucleic acid 10mer ASO, sequence CTCATACTCT, targeting acpP −5 to +5 (all peptide nucleic acid (PNA)) | ++ | ++ | this ability is retained upon conjugation | reduces the levels of acpP mRNA |

Reference: paper PMC11098465, “A comparative analysis of peptide-delivered antisense antibiotics using diverse nucleotide mimics” (RNA, 2024)
